Test results from publication PMC7313537 (PLoS ONE, 2020).

How the values were obtained:
Assay in all cases: Broader kinase panel (PerkinElmer)
Assay type in all cases: biochemical
Conditions in all cases: 100 nM; read-out: Average Percent Inhibition
[1] = target: T1, AMPK-alpha2/beta1/gamma 1 (Homo sapiens, UniProt P54646)
T1 construct: purchased In-house HTRF panel (56 kinases) and PerkinElmer (161-kinase panel)
Source text: (§1) […]. […] […].

Abl (T315I) = target: T2, Abl (T315I) (Homo sapiens, UniProt P00519, T315I)
T2 construct: purchased In-house HTRF panel (56 kinases) and PerkinElmer (161-kinase panel)
Source text: as §1

AurA = target: T3, AurA (Homo sapiens, UniProt O14965)
T3 construct: purchased In-house HTRF panel (56 kinases) and PerkinElmer (161-kinase panel)
Source text: as §1

CHK1 = target: T4, CHK1 (Homo sapiens, UniProt O14757)
T4 construct: purchased In-house HTRF panel (56 kinases) and PerkinElmer (161-kinase panel)
Source text: as §1

CHK2 = target: T5, CHK2 (Homo sapiens, UniProt O96017)
T5 construct: purchased In-house HTRF panel (56 kinases) and PerkinElmer (161-kinase panel)
Source text: as §1

CK1d = target: T6, CK1d (Homo sapiens, UniProt P48730)
T6 construct: purchased In-house HTRF panel (56 kinases) and PerkinElmer (161-kinase panel)
Source text: as §1

CSNK1A1 = target: T7, CSNK1A1 (Homo sapiens, UniProt P48729)
T7 construct: purchased In-house HTRF panel (56 kinases) and PerkinElmer (161-kinase panel)
Source text: as §1

DYRK1a = target: T8, DYRK1a (Homo sapiens, UniProt Q13627)
T8 construct: purchased In-house HTRF panel (56 kinases) and PerkinElmer (161-kinase panel)
Source text: as §1

EGFR = EGFR (Homo sapiens, UniProt P00533)
Source text: as §1

EPHB1 = target: T9, EPHB1 (Homo sapiens, UniProt P54762)
T9 construct: purchased In-house HTRF panel (56 kinases) and PerkinElmer (161-kinase panel)
Source text: as §1

EPHB4 = target: T10, EPHB4 (Homo sapiens, UniProt P54760)
T10 construct: purchased In-house HTRF panel (56 kinases) and PerkinElmer (161-kinase panel)
Source text: as §1

FLT4 = target: T11, FLT4 (Homo sapiens, UniProt P35916)
T11 construct: purchased In-house HTRF panel (56 kinases) and PerkinElmer (161-kinase panel)
Source text: as §1

FRK = target: T12, FRK (Homo sapiens, UniProt P42685)
T12 construct: purchased In-house HTRF panel (56 kinases) and PerkinElmer (161-kinase panel)
Source text: as §1

FYN = target: T13, FYN (Homo sapiens, UniProt P06241)
T13 construct: purchased In-house HTRF panel (56 kinases) and PerkinElmer (161-kinase panel)
Source text: as §1

HER4 = target: T14, HER4 (Homo sapiens, UniProt Q15303)
T14 construct: purchased In-house HTRF panel (56 kinases) and PerkinElmer (161-kinase panel)
Source text: as §1

HGK = target: T15, HGK (Homo sapiens, UniProt O95819)
T15 construct: purchased In-house HTRF panel (56 kinases) and PerkinElmer (161-kinase panel)
Source text: as §1

HIPK1 = target: T16, HIPK1 (Homo sapiens, UniProt Q86Z02)
T16 construct: purchased In-house HTRF panel (56 kinases) and PerkinElmer (161-kinase panel)
Source text: as §1

HIPK2 = target: T17, HIPK2 (Homo sapiens, UniProt Q9H2X6)
T17 construct: purchased In-house HTRF panel (56 kinases) and PerkinElmer (161-kinase panel)
Source text: as §1

JAK2 = target: T18, JAK2 (Homo sapiens, UniProt O60674)
T18 construct: purchased In-house HTRF panel (56 kinases) and PerkinElmer (161-kinase panel)
Source text: as §1

KDR = KDR (Homo sapiens, UniProt P35968)
Source text: as §1

MELK = target: T19, MELK (Homo sapiens, UniProt Q14680)
T19 construct: purchased In-house HTRF panel (56 kinases) and PerkinElmer (161-kinase panel)
Source text: as §1

MINK = MINK (Homo sapiens, UniProt Q8N4C8)
Source text: as §1

MNK1 (MKNK1) = target: T20, MNK1 (MKNK1) (Homo sapiens, UniProt Q9BUB5)
T20 construct: purchased In-house HTRF panel (56 kinases) and PerkinElmer (161-kinase panel)
Source text: as §1

NEK1 = target: T21, NEK1 (Homo sapiens, UniProt Q96PY6)
T21 construct: purchased In-house HTRF panel (56 kinases) and PerkinElmer (161-kinase panel)
Source text: as §1

PAK5 (PAK7) = target: T22, PAK5 (PAK7) (Homo sapiens, UniProt Q9P286)
T22 construct: purchased In-house HTRF panel (56 kinases) and PerkinElmer (161-kinase panel)
Source text: as §1

PDGFR-alpha (V561D) = target: T23, PDGFR-alpha (V561D) (Homo sapiens, UniProt P16234, V561D)
T23 construct: purchased In-house HTRF panel (56 kinases) and PerkinElmer (161-kinase panel)
Source text: as §1

PDGFR_alpha = target: T24, PDGFR_alpha (Homo sapiens, UniProt P16234)
T24 construct: purchased In-house HTRF panel (56 kinases) and PerkinElmer (161-kinase panel)
Source text: as §1

PHKG2 = target: T25, PHKG2 (Homo sapiens, UniProt P15735)
T25 construct: purchased In-house HTRF panel (56 kinases) and PerkinElmer (161-kinase panel)
Source text: as §1

PKC-gamma = target: T26, PKC-gamma (Homo sapiens, UniProt P05129)
T26 construct: purchased In-house HTRF panel (56 kinases) and PerkinElmer (161-kinase panel)
Source text: as §1

PKC-theta = target: T27, PKC-theta (Homo sapiens, UniProt Q04759)
T27 construct: purchased In-house HTRF panel (56 kinases) and PerkinElmer (161-kinase panel)
Source text: as §1

PKCb2 = target: T28, PKCb2 (Homo sapiens, UniProt P05771)
T28 construct: purchased In-house HTRF panel (56 kinases) and PerkinElmer (161-kinase panel)
Source text: as §1

PKCz = target: T29, PKCz (Homo sapiens, UniProt Q05513)
T29 construct: purchased In-house HTRF panel (56 kinases) and PerkinElmer (161-kinase panel)
Source text: as §1

PRKCI (PKC-iota) = target: T30, PRKCI (PKC-iota) (Homo sapiens, UniProt P41743)
T30 construct: purchased In-house HTRF panel (56 kinases) and PerkinElmer (161-kinase panel)
Source text: as §1

PRKX = target: T31, PRKX (Homo sapiens, UniProt P51817)
T31 construct: purchased In-house HTRF panel (56 kinases) and PerkinElmer (161-kinase panel)
Source text: as §1

RET = RET (Homo sapiens, UniProt P07949)
Source text: as §1

ROCK1 = ROCK1 (Homo sapiens, UniProt Q13464)
Source text: as §1

ROCK2 = target: T32, ROCK2 (Homo sapiens, UniProt O75116)
T32 construct: purchased In-house HTRF panel (56 kinases) and PerkinElmer (161-kinase panel)
Source text: as §1

RSK2 = RSK2 (Homo sapiens, UniProt P51812)
Source text: as §1

RSK3 = target: T33, RSK3 (Homo sapiens, UniProt Q15349)
T33 construct: purchased In-house HTRF panel (56 kinases) and PerkinElmer (161-kinase panel)
Source text: as §1

SRC = target: T34, SRC (Homo sapiens, UniProt P12931)
T34 construct: purchased In-house HTRF panel (56 kinases) and PerkinElmer (161-kinase panel)
Source text: as §1

SRM (SRMS) = target: T35, SRM (SRMS) (Homo sapiens, UniProt Q9H3Y6)
T35 construct: purchased In-house HTRF panel (56 kinases) and PerkinElmer (161-kinase panel)
Source text: as §1

TRKC (NTRK3) = target: T36, TRKC (NTRK3) (Homo sapiens, UniProt Q16288)
T36 construct: purchased In-house HTRF panel (56 kinases) and PerkinElmer (161-kinase panel)
Source text: as §1

TYRO3 = target: T37, TYRO3 (Homo sapiens, UniProt Q06418)
T37 construct: purchased In-house HTRF panel (56 kinases) and PerkinElmer (161-kinase panel)
Source text: as §1

T24 sequence (P16234 24-1089): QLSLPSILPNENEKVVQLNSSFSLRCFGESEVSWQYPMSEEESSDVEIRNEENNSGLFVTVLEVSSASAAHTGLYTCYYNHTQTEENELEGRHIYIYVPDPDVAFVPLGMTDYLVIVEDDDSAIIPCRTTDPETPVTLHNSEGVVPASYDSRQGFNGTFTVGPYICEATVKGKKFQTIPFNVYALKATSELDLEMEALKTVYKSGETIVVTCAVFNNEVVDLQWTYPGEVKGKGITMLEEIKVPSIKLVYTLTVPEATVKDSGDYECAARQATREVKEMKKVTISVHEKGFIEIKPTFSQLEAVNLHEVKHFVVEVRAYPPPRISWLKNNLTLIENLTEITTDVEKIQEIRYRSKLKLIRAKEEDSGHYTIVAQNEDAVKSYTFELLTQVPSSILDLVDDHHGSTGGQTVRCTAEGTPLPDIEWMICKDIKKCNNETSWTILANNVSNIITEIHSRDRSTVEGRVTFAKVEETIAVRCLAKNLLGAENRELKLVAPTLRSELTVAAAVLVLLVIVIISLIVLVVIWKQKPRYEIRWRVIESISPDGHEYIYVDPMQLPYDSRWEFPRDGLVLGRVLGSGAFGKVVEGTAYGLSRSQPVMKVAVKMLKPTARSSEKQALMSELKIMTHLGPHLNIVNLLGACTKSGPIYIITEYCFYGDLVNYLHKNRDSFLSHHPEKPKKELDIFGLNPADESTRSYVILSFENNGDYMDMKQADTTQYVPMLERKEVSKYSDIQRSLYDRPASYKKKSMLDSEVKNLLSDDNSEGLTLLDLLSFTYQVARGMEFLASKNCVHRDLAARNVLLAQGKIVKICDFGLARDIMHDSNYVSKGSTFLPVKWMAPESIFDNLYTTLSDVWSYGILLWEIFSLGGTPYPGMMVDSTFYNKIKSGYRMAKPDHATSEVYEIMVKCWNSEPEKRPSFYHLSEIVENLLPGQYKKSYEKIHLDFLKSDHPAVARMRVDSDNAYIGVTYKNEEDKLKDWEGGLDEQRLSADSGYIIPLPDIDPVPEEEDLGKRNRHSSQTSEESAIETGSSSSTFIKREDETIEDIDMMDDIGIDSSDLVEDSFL
T34 sequence (P12931 whole entry, species assumed): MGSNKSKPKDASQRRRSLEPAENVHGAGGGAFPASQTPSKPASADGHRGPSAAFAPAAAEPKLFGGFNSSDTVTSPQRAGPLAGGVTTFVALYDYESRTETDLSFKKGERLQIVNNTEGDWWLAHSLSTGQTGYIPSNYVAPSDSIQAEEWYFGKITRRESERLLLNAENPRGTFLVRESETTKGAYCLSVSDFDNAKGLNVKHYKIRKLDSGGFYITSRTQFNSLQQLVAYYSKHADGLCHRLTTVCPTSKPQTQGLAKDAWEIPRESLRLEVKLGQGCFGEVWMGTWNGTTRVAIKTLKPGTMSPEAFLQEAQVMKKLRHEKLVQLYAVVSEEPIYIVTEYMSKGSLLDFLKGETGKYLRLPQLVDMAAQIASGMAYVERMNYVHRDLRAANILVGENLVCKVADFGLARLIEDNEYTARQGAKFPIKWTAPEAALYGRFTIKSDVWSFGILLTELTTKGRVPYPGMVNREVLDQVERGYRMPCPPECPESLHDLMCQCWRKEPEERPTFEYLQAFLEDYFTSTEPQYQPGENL
T12 sequence (P42685 whole entry): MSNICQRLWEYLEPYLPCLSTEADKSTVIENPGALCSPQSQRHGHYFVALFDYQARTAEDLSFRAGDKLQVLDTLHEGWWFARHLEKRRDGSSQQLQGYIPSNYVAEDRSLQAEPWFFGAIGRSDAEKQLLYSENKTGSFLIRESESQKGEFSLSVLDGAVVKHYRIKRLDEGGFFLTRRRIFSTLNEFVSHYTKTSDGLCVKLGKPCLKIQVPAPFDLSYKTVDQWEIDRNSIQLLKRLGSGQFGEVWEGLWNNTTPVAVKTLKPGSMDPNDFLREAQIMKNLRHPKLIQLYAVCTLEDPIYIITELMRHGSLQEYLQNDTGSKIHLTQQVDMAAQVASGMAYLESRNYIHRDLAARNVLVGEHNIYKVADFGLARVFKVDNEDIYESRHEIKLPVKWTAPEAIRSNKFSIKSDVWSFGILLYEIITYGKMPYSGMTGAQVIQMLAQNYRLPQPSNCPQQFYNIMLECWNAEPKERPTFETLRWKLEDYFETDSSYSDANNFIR
T21 sequence (Q96PY6 whole entry): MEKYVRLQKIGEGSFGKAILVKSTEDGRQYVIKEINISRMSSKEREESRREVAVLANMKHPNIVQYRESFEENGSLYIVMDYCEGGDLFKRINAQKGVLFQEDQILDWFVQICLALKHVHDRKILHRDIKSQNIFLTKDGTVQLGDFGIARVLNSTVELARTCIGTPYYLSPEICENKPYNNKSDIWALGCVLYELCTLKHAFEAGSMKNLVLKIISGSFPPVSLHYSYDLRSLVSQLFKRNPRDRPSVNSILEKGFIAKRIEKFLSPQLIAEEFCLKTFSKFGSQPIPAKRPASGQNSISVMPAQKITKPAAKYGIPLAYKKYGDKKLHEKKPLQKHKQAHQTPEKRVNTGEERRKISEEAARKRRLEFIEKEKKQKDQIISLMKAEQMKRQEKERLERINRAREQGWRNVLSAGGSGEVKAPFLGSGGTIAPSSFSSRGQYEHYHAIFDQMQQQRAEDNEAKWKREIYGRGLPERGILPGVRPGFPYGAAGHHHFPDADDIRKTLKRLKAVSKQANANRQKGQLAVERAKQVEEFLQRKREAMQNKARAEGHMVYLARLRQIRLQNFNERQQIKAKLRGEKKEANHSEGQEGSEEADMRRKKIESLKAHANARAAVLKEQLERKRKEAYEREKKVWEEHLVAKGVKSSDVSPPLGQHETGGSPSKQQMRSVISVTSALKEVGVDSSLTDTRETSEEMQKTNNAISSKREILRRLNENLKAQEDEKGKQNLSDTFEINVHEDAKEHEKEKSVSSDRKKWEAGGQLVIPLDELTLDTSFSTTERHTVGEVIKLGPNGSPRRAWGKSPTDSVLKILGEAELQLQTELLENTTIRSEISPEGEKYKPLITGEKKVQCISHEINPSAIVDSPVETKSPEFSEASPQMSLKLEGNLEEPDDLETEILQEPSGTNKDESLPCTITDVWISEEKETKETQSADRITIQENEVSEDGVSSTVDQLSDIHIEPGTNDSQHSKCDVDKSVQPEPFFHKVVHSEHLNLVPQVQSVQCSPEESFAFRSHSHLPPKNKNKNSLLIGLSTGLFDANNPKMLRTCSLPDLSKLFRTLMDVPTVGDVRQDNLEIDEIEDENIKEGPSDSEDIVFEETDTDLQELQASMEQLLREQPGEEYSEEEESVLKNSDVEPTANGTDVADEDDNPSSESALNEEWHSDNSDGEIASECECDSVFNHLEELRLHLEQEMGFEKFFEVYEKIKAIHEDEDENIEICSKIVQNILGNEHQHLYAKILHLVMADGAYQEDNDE
KDR, sequence (P35968 20-1356): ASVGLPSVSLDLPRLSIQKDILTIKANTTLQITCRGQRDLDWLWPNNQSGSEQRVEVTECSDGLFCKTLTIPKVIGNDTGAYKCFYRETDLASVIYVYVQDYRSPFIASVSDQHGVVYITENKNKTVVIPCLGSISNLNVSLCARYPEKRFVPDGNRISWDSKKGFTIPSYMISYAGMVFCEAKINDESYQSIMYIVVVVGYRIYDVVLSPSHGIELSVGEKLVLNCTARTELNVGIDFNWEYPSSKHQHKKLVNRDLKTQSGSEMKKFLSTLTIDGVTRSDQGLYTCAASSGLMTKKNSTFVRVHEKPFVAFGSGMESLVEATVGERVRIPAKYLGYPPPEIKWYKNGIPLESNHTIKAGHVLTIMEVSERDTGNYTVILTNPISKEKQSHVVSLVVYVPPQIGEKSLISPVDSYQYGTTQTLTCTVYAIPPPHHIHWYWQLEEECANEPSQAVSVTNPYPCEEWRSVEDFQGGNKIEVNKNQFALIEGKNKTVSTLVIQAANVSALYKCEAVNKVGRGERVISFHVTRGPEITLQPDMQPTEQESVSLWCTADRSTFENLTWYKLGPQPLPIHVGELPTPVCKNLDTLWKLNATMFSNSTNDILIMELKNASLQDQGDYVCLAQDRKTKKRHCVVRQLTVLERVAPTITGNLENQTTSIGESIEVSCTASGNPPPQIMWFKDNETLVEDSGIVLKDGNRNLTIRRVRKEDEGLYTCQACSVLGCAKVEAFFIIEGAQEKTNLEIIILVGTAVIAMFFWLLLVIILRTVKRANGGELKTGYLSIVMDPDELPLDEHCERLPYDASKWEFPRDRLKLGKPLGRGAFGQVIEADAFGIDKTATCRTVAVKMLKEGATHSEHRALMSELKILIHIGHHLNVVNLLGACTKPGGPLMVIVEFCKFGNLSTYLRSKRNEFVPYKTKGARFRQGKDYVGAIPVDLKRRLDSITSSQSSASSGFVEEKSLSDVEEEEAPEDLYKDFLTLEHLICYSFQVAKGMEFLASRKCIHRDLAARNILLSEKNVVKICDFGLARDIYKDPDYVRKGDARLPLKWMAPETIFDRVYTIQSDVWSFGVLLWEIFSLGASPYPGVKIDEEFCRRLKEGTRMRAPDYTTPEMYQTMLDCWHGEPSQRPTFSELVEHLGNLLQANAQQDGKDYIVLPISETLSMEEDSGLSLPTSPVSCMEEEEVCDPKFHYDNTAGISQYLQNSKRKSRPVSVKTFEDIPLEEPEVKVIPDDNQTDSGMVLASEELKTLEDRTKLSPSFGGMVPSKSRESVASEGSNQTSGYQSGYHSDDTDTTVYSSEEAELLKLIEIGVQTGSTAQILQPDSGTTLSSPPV
T31 sequence (P51817 whole entry): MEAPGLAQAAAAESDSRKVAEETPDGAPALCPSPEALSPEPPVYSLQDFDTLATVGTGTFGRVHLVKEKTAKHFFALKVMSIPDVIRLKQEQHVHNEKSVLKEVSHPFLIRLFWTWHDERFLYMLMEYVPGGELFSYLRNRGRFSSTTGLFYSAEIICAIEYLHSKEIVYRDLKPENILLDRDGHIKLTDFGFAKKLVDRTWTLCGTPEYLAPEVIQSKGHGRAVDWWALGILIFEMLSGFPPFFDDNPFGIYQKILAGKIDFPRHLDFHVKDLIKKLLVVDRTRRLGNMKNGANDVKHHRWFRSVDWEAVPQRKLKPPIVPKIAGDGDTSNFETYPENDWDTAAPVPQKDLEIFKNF

SMILES: CCN1C(=O)N(c2c(F)c(OC)cc(OC)c2F)Cc2cnc3[nH]c(CN4CCOCC4)cc3c21 [INCB054828, pemigatinib]
- inhibition at 0.1 µM [1]: 7%
- inhibition at 0.1 µM (Abl (T315I)): 2%
- inhibition at 0.1 µM (AurA): 6%
- inhibition at 0.1 µM (CHK1): 0%
- inhibition at 0.1 µM (CHK2): 4%
- inhibition at 0.1 µM (CK1d): -1%
- inhibition at 0.1 µM (CSNK1A1): -1%
- inhibition at 0.1 µM (DYRK1a): -2%
- inhibition at 0.1 µM (EGFR): 23%
- inhibition at 0.1 µM (EPHB1): 0%
- inhibition at 0.1 µM (EPHB4): 4%
- inhibition at 0.1 µM (FLT4): 38%
- inhibition at 0.1 µM (FRK): 0%
- inhibition at 0.1 µM (FYN): -1%
- inhibition at 0.1 µM (HER4): -15%
- inhibition at 0.1 µM (HGK): -6%
- inhibition at 0.1 µM (HIPK1): -1%
- inhibition at 0.1 µM (HIPK2): -1%
- inhibition at 0.1 µM (JAK2): 8%
- inhibition at 0.1 µM (KDR): 45%
- inhibition at 0.1 µM (MELK): 2%
- inhibition at 0.1 µM (MINK): 2%
- inhibition at 0.1 µM (MNK1 (MKNK1)): 6%
- inhibition at 0.1 µM (NEK1): 1%
- inhibition at 0.1 µM (PAK5 (PAK7)): 6%
- inhibition at 0.1 µM (PDGFR-alpha (V561D)): 1%
- inhibition at 0.1 µM (PDGFR_alpha): -4%
- inhibition at 0.1 µM (PHKG2): -1%
- inhibition at 0.1 µM (PKC-gamma): 7%
- inhibition at 0.1 µM (PKC-theta): 2%
- inhibition at 0.1 µM (PKCb2): 0%
- inhibition at 0.1 µM (PKCz): 1%
- inhibition at 0.1 µM (PRKCI (PKC-iota)): 3%
- inhibition at 0.1 µM (PRKX): 0%
- inhibition at 0.1 µM (RET): 7%
- inhibition at 0.1 µM (ROCK1): -3%
- inhibition at 0.1 µM (ROCK2): 5%
- inhibition at 0.1 µM (RSK2): -2%
- inhibition at 0.1 µM (RSK3): -3%
- inhibition at 0.1 µM (SRC): 1%
- inhibition at 0.1 µM (SRM (SRMS)): 1%
- inhibition at 0.1 µM (TRKC (NTRK3)): 3%
- inhibition at 0.1 µM (TYRO3): 1%
